Patent US12371432B2, “Haloallylamine compounds and application thereof” (TransThera Sciences (Nanjing), Inc., priority 2019, dated 2025)
Counter-ions that a name gives are not always drawn. One block for each molecule: values may come before it.

Assays:
rhVAP-1 = target: T1, rhVAP-1 (Homo sapiens, UniProt Q16853); experiment: Inhibitory activity against rhVAP-1 enzyme (Biological Example 2); assay type: biochemical; details: Table 2; benzylamine substrate, Amplex Red/HRP
T1 construct: purchased PeproTech
T1 sequence (Q16853 27-763 limits assumed): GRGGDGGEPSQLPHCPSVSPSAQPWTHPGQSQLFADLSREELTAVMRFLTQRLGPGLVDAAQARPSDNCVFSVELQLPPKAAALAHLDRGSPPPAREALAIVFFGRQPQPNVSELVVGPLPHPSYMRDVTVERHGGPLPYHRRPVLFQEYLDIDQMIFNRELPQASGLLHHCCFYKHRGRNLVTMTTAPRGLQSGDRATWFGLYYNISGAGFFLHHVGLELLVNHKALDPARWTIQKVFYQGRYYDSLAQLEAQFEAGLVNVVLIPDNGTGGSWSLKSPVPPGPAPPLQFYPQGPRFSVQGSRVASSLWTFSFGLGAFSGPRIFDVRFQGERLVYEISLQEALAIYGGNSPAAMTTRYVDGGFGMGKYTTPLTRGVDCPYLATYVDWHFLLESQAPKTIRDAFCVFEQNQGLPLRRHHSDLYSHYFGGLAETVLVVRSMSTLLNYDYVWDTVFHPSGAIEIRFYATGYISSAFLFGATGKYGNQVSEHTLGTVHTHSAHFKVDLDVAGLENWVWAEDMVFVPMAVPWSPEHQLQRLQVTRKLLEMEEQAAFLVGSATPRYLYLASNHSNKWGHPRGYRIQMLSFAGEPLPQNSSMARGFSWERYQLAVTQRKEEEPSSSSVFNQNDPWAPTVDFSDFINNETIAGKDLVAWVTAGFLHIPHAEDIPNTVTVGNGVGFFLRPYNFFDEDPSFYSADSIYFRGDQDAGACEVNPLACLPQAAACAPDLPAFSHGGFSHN
Summary of the method: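 Enzyme was preincubated 30 min at 37 °C in PBS with a 10-point 3-fold compound dilution series. Benzylamine with Amplex Red/HRP was then added, and fluorescence (ex 580/em 620 nm) was read every 5 min for 30 min. Inhibition was taken from rates versus max wells, and IC50 from a variable-slope fit.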

MAO-A = target: T2, MAO-A (Homo sapiens, UniProt P21397); experiment: Selectivity against MAO-A enzyme (MAO-Glo); assay type: biochemical
T2 construct: purchased Active Motif
T2 sequence (P21397 1-527): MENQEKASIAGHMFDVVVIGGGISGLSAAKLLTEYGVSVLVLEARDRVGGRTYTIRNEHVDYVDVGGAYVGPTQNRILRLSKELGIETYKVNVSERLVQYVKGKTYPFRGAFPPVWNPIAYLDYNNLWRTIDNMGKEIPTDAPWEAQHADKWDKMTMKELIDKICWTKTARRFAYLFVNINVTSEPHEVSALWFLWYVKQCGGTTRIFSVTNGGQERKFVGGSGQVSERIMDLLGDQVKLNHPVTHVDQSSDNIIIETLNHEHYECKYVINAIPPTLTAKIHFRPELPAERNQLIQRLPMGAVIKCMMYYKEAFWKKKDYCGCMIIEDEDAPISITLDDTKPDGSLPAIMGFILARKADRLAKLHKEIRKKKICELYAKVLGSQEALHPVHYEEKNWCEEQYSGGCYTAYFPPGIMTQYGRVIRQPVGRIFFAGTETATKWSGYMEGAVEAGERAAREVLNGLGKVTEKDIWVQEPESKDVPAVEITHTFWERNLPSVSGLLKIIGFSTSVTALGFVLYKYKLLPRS
Protocol: (1) Instrument, Consumable and Reagent
Microplate reader (Perkin Elmer, EnVision), 384-well plate (Perkin Elmer), centrifuge (Eppendorf), MAO-Glo™ (Promega), MAO-A (Active Motif) and MAO-B (Active Motif).
(2) Preparation of Concentration Gradient Compound Solutions
An appropriate amount of the compound to be tested was taken, dissolved in DMSO to 10 mM and then stored. The solution was then gradiently diluted 4-fold with DMSO, 6 concentration gradients in total.
(3) Preparation of Enzyme Solutions
MAO-A/B mother liquor was diluted with the experimental buffer for MAO-A/B to obtain enzyme solutions of 2× concentrations.
(4) Preparation of Substrate Mixtures of 2× Concentrations
The mother liquor of MAO-A/B substrate mixture was diluted with the experimental buffer for MAO-A/B to obtain substrate mixtures of 2× concentrations.
200 nL compound solutions or solvents of different concentrations and 10 μL MAO-A/B enzyme solutions of 2× concentrations were added into a 384-well plate, centrifuged at 1,000 rpm for 60 s, shaken to be mixed uniformly and then incubated at room temperature for 15 min. 10 μL substrate mixtures of 2× concentrations were then added into each well, and reaction was initiated. The 384-well plate was centrifuged at 1,000 rpm for 60 s, shaken for a uniform mixing and then incubated at room temperature for 60 min. 20 μL of test stop solution was added to stop reaction. Centrifugation was performed at 1,000 rpm for 60 s, and shaking was performed for uniform mixing. After 30 min of standing, the microplate reader was used to perform reading.
The inhibition rate was calculated according to the following formula: Inhibition rate (%)=(Signal_Max-Signal_sample)/(Signal_Max-Signal_min)×100 (6) Fitting of Dose-Response Curve
With the log value of concentration as the X axis and the percent inhibition rate as the Y axis, the log (inhibitor) vs. response-variable slope of analysis software GraphPad Prism 5 was used to fit a dose-response curve, thus obtaining the IC50 value of activity of each compound against the enzyme.

Structure (SMILES): CCn1ccc2c(cnn2C/C(=C/F)CN)c1=O [Compound A29 hydrochloride, (E)-1-(2-(aminomethyl)-3-fluoroallyl)-5-ethyl-1,5-dihydro-4H-pyrazolo[4,3-c]pyridin-4-one]
IC50 (rhVAP-1): 60 nM | IC50 (MAO-A): 87700 nM

Structure (SMILES): Cl.NC/C(=C\F)Cn1cc2c(c1Cl)CCN(C1CC1)C2=O [Compound A42 hydrochloride, (E)-2-(2-(aminomethyl)-3-fluoroallyl)-1-chloro-5-cyclopropyl-2,5,6,7-tetrahydro-4H-pyrrolo[3,4-c]pyridin-4-one]
IC50 (rhVAP-1): 17 nM | IC50 (MAO-A): 47600 nM

Structure (SMILES): NC/C(=C\F)Cn1c(Br)c2c(c1Br)C(=O)N(C1CC1)CC2 [Compound A33 hydrochloride, (E)-2-(2-(aminomethyl)-3-fluoroallyl)-1,3-dibromo-5-cyclopropyl-2,5,6,7-tetrahydro-4H-pyrrolo[3,4-c]pyridin-4-one]
IC50 (rhVAP-1): 23 nM | IC50 (MAO-A): 55900 nM

Structure (SMILES): Cc1c2c(cn1C/C(=C/F)CN)C(=O)N(C1CC1)CC2 [Compound A35 hydrochloride, (E)-2-(2-(aminomethyl)-3-fluoroallyl)-5-cyclopropyl-1-methyl-2,5,6,7-tetrahydro-4H-pyrrolo[3,4-c]pyridin-4-one]
IC50 (rhVAP-1): 24 nM | IC50 (MAO-A): 8810 nM

Structure (SMILES): Cl.NC/C(=C\F)Cn1cc2c(c1Br)CCN(C1CC1)C2=O [Compound A32 hydrochloride, (E)-2-(2-(aminomethyl)-3-fluoroallyl)-1-bromo-5-cyclopropyl-2,5,6,7-tetrahydro-4H-pyrrolo[3,4-c]pyridin-4-one]
IC50 (rhVAP-1): 15 nM | IC50 (MAO-A): 61000 nM

Structure (SMILES): NC/C(=C\F)Cn1ncc2c1CCN(C1CC1)C2=O [Compound A2 hydrochloride, (E)-1-(2-(aminomethyl)-3-fluoroallyl)-5-cyclopropyl-1,5,6,7-tetrahydro-4H-pyrazolo[4,3-c]pyridin-4-one]
IC50 (MAO-A): > 100000 nM

Structure (SMILES): CCn1ccc2nn(C/C(=C/F)CN)cc2c1=O [Compound A28 hydrochloride, (E)-2-(2-(aminomethyl)-3-fluoroallyl)-5-ethyl-2,5-dihydro-4H-pyrazolo[4,3-c]pyridin-4-one]
IC50 (rhVAP-1): 33 nM | IC50 (MAO-A): > 100000 nM

Structure (SMILES): CCN1CCc2nn(C/C(=C/F)CN)cc2C1=O [Compound A6 hydrochloride, (E)-2-(2-(aminomethyl)-3-fluoroallyl)-5-ethyl-2,5,6,7-tetrahydro-4H-pyrazolo[4,3-c]pyridin-4-one]
IC50 (rhVAP-1): 23 nM | IC50 (MAO-A): 89100 nM

Structure (SMILES): CC(C)(C)N1CCc2nn(C/C(=C/F)CN)cc2C1=O [Compound A7 hydrochloride, (E)-2-(2-(aminomethyl)-3-fluoroallyl)-5-tert-butyl-2,5,6,7-tetrahydro-4H-pyrazolo[4,3-c]pyridin-4-one]
IC50 (rhVAP-1): 46 nM | IC50 (MAO-A): > 100000 nM

The remaining lines, values ahead:

IC50 (rhVAP-1): 8 nM | IC50 (MAO-A): > 100000 nM
Structure (SMILES): NC/C(=C\F)Cn1cc2c(=O)n(C3CC3)ccc2n1 [Compound A41, (E)-2-(2-(aminomethyl)-3-fluoroallyl)-5-cyclopropyl-2,5-dihydro-4H-pyrazolo[4,3-c]pyridin-4-one]

IC50 (rhVAP-1): 45 nM | IC50 (MAO-A): > 100000 nM
Structure (SMILES): CCN1CCc2cn(C/C(=C/F)CN)cc2C1=O [Compound A25, (E)-2-(2-(aminomethyl)-3-fluoroallyl)-5-ethyl-2,5,6,7-tetrahydro-4H-pyrrolo[3,4-c]pyridin-4-one]

IC50 (rhVAP-1): 40 nM | IC50 (MAO-A): > 100000 nM
Structure (SMILES): CNC(=O)c1cnn(C/C(=C/F)CN)c1 [Compound B1, (E)-1-(2-(aminomethyl)-3-fluoroallyl)-N-methyl-1H-pyrazole-4-carboxamide]

IC50 (rhVAP-1): 44 nM | IC50 (MAO-A): > 100000 nM
Structure (SMILES): NC/C(=C\F)Cn1cc2c(c1)C(=O)N(C1CC1)CC2 [Compound A22, (E)-2-(2-(aminomethyl)-3-fluoroallyl)-5-cyclopropyl-2,5,6,7-tetrahydro-4H-pyrrolo[3,4-c]pyridin-4-one]
